Laboratory results as given in ChEMBL document CHEMBL3232722, “Synthesis and kinase inhibitory activity of new sulfonamide derivatives of pyrazolo[4,3-e][1,2,4]triazines” (Eur J Med Chem, 2014).
Active and inactive are the calls of the source. The rule behind the calls is not given here.

Legend:
K562 [1] = experiment: Effect on cell cycle distribution in human K562 cells after 24 hrs by propidium iodide staining based flow cytometry; assay type: functional
[2] = target: Casein kinase II subunit alpha (Homo sapiens, UniProt P68400); experiment: Inhibition of CK2alpha1 (unknown origin) using casein as substrate in presence of [gamma33P]ATP
Sequence of Casein kinase II subunit alpha (P68400 whole entry): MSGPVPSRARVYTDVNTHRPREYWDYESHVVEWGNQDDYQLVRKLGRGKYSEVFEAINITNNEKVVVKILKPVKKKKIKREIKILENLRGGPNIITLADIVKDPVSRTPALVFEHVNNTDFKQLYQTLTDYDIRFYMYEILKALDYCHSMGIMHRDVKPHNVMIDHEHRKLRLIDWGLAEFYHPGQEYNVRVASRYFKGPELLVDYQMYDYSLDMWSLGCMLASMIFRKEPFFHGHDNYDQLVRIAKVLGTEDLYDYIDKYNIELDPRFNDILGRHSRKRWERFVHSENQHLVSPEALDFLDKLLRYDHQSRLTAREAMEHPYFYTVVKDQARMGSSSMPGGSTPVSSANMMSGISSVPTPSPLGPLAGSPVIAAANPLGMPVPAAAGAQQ

MDA-MB-231 [3] = experiment: Cytostatic activity against human MDA-MB-231 cells assessed as decrease in [3H]thymidine incorporation into DNA after 24 hrs by liquid scintillation counting analysis; assay type: functional, cell-based
K562 [4] = experiment: Induction of apoptosis in human K562 cells assessed as increase in sub-diploid cell population at 10 to 100 uM after 24 hrs by propidium iodide staining based flow cytometry; assay type: functional
K562 [5] = experiment: Antiproliferative activity against human K562 cells assessed as increase in number of cells with compromised cell membranes at 10 to 100 uM after 24 hrs by propidium iodide exclusion assay based flow cytometry; assay type: functional
[6] = target: T1, Bcr/Abl fusion protein (Homo sapiens) (UniProt P00519+P11274); experiment: Inhibition of Bcr/Abl kinase in human K562 cells assessed as decrease in STAT5 phosphorylation at Tyr694 after 1 hr by immunoblot analysis; assay type: cell-based
T1 sequence (P00519 whole entry, looked up, the tested form may be a part): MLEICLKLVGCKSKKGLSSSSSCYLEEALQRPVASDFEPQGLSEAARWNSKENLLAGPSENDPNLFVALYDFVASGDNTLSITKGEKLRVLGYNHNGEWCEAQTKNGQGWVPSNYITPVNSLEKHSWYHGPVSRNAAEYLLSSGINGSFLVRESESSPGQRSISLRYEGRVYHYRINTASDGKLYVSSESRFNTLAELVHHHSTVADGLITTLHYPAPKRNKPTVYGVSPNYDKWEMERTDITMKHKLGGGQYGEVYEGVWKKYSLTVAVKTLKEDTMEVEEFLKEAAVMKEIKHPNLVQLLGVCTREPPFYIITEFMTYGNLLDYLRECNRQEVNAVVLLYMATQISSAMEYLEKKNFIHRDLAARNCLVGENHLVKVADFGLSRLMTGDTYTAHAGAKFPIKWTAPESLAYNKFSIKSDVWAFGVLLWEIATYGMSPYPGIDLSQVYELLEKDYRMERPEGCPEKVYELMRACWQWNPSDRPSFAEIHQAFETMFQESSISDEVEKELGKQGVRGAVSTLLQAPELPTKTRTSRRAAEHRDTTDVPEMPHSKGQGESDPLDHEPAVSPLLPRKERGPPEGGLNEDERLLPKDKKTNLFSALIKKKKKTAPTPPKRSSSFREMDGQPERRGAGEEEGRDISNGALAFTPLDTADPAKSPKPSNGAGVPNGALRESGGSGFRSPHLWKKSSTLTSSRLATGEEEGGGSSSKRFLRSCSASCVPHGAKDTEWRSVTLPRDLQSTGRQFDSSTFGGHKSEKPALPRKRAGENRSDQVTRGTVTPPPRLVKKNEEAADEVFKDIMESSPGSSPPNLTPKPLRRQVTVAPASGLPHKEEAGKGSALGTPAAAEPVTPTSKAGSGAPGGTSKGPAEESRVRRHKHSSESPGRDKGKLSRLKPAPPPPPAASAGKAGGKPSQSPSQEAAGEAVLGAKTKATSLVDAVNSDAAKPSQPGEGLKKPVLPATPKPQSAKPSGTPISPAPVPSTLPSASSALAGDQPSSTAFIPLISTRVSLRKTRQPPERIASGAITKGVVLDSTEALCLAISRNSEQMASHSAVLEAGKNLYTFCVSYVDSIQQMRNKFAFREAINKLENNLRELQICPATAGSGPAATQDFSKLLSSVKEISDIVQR
T1 sequence (P11274 whole entry, looked up, the tested form may be a part): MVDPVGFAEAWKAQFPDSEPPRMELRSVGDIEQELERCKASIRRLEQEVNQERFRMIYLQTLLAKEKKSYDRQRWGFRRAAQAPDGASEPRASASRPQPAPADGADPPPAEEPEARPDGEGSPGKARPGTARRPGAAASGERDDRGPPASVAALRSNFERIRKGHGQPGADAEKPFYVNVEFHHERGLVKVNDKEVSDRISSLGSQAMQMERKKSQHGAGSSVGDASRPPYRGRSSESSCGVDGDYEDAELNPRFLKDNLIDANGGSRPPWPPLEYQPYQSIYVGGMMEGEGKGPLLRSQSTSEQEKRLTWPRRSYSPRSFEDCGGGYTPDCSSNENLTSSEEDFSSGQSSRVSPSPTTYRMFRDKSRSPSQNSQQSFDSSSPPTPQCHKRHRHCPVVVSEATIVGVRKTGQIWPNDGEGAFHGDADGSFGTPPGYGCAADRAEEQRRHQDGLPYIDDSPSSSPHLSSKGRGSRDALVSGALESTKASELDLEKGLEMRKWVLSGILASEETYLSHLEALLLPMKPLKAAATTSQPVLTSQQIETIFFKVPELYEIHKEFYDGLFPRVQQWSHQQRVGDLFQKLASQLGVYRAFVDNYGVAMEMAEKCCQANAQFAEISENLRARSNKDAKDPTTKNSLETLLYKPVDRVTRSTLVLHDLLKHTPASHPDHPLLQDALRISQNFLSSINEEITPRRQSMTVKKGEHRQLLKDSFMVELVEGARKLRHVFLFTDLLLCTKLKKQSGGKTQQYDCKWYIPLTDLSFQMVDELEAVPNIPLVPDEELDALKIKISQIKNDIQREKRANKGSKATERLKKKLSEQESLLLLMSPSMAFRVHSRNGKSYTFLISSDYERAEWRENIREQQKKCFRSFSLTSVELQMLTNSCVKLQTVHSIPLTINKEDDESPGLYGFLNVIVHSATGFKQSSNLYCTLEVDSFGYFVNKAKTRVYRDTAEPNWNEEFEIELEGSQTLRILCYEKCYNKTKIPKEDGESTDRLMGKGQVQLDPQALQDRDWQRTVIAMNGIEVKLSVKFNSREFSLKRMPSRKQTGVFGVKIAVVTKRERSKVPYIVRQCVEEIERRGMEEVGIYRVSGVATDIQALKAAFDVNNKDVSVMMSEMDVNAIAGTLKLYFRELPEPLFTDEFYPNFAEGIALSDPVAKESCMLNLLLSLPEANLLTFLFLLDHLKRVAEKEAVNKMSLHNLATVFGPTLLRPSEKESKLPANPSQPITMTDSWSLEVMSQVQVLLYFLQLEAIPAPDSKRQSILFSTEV

MCF7 [7] = experiment: In vitro antiproliferative activity against human MCF7 cells assessed as decrease cell viability after 24 hrs by MTT assay; assay type: functional, cell-based; settings: for IC50: MCF7, 24 h
K562 [8] = experiment: In vitro antiproliferative activity against human K562 cells assessed as decrease in cell viability after 24 hrs by MTT assay; assay type: functional, cell-based; settings: for IC50: K562, 24 h
[9] = target: T2, Tyrosine-protein kinase ABL1 (Homo sapiens, UniProt P00519); experiment: Inhibition of Abl kinase tyrosine phosphorylation in human K562 cells after 1 hr by immunoblot analysis; assay type: cell-based
T2 sequence (P00519 whole entry): as the sequence (P00519 whole entry, looked up, the tested form may be a part) above

HL-60 = experiment: In vitro antiproliferative activity against human HL60 cells assessed as decrease in cell viability after 24 hrs by MTT assay; assay type: functional, cell-based; settings: for IC50: HL-60, 24 h
MDA-MB-231 [10] = experiment: Ratio of IC50 for human MDA-MB-231 cells to IC50 for human K562 cells; assay type: functional
[11] = target: Cyclin-dependent kinase 2/cyclin E1 (Homo sapiens, UniProt P24941); experiment: Inhibition of CDK2/cyclin E (unknown origin) expressed in Sf9 cells using histone H1 as substrate in presence of [gamma33P]ATP
[12] = target: T1, Bcr/Abl fusion protein (Homo sapiens); experiment: Inhibition of Bcr/Abl kinase tyrosine phosphorylation in human K562 cells after 1 hr by immunoblot analysis; assay type: cell-based
[13] = target: T2, Tyrosine-protein kinase ABL1; experiment: Inhibition of recombinant Abl kinase (unknown origin) expressed in Sf9 cells using GGEAIYAAPFKK as substrate in presence of [gamma33P]ATP
K562 [14] = experiment: Inhibition of tyrosine phosphorylation of protein with molecular weight between 40 and 60 kDa in human K562 cells after 1 hr by immunoblot analysis; assay type: functional, cell-based
CCRF-CEM = experiment: In vitro antiproliferative activity against human CCRF-CEM cells assessed as decrease in cell viability after 24 hrs by MTT assay; assay type: functional, cell-based
[15] = (§1) In vitro antiproliferative activity against human BV173 cells assessed as decrease in cell viability after 24 hrs by MTT assay; assay type: functional, cell-based; settings: BV-173, 24 h
BV-173 = experiment: as §1; assay type: functional, cell-based
MCF7 [16] = experiment: Cytostatic activity against human MCF7 cells assessed as decrease in [3H]thymidine incorporation into DNA after 24 hrs by liquid scintillation counting analysis; assay type: functional, cell-based
MDA-MB-231 [17] = experiment: In vitro antiproliferative activity against human MDA-MB-231 cells assessed as decrease in cell vaibility after 24 hrs by MTT assay; assay type: functional, cell-based; settings: for IC50: MDA-MB-231, 24 h
K562 [18] = settings: Homo sapiens, 10 uM
Description: Inhibition of tyrosine phosphorylation of protein with molecular weight between 40 and 60 kDa in human K562 cells at 10 uM after 1 hr by immunoblot analysis

[19] = target: T1, Bcr/Abl fusion protein (Homo sapiens); experiment: Inhibition of Bcr/Abl kinase in human K562 cells assessed as decrease in CrkL phosphorylation at Tyr207 at 1 to 100 uM after 1 hr by immunoblot analysis; assay type: cell-based
MCF7 [20] = experiment: Ratio of IC50 for human MCF7 cells to IC50 for human K562 cells; assay type: functional

Row | Structure (SMILES) | Activity (K562 [1]) | IC50 [2] [µM] | IC50 (MDA-MB-231 [3]) [µM] | inhibition (MDA-MB-231 [3]) | Activity (K562 [4]) | Activity (K562 [5]) | inhibition [6] | inhibition (MCF7 [7]) | IC50 (MCF7 [7]) [µM] | inhibition (K562 [8]) | IC50 (K562 [8]) [µM] | inhibition [9] | inhibition (HL-60) | IC50 (HL-60; read-out: IC50) [µM] | IC50 [11] [µM] | inhibition [12] | IC50 [13] [µM] | inhibition (K562 [14]) | IC50 (CCRF-CEM) [µM] | IC50 [15] [µM] | further results
1 | Cc1nn(C)c2nnc(Nc3ccc(S(=O)(=O)N4CCCNCC4)cc3)nc12 | inactive | > 50 | 150 | Dose-dependent effect | Active | Active | Dose-dependent effect | Dose-dependent effect | 140 | Dose-dependent effect | 21 | Dose-dependent effect | Dose-dependent effect | 38 | > 50 | Dose-dependent effect | 5.9 | Dose-dependent effect | 36 | 22 | Ratio IC50 (MDA-MB-231 [10]): 7; inhibition (CCRF-CEM): Dose-dependent effect; inhibition (BV-173): Dose-dependent effect; IC50 (MCF7 [16]): 123 µM; inhibition (MCF7 [16]): Dose-dependent effect; inhibition (MDA-MB-231 [17]): Dose-dependent effect; IC50 (MDA-MB-231 [17]): 155 µM
2 | Cc1ccc(NC(=O)c2ccc(CN3CCN(C)CC3)cc2)cc1Nc1nccc(-c2cccnc2)n1 [IMATINIB] |  |  |  |  |  |  |  |  |  |  | 13 |  |  |  |  |  |  |  | 45 | 20 | IC50 (HL-60): 55 µM; inhibition (K562 [18]): Active
3 | Cc1nn(C)c2nnc(Nc3ccc(S(=O)(=O)N4CCNCC4)cc3)nc12 | inactive | > 25 | 103 | Dose-dependent effect | Active | Active | Dose-dependent effect | Dose-dependent effect | 150 | Dose-dependent effect | 27 | Dose-dependent effect | Dose-dependent effect | 55 | > 25 | Dose-dependent effect | 5.8 | Dose-dependent effect | 20 | 22 | inhibition [19]: Active; Ratio IC50 (MCF7 [20]): 5; inhibition (CCRF-CEM): Dose-dependent effect; inhibition (BV-173): Dose-dependent effect; IC50 (MCF7 [16]): 170 µM; inhibition (MCF7 [16]): Dose-dependent effect; inhibition (MDA-MB-231 [17]): Dose-dependent effect; IC50 (MDA-MB-231 [17]): 130 µM
